Patent US9533991B2, “Inhibitors of Bruton's tyrosine kinase” (PHARMACYCLICS LLC, priority 2014, dated 2017)

Experiments:
Format in all cases: biochemical
JAK3 = biological target: T1, JAK3 (Homo sapiens, UniProt P52333); assay: Inhibition of a panel of kinases: JAK3; details: kinase panel, Table 2
T1 sequence (P52333 1-1124): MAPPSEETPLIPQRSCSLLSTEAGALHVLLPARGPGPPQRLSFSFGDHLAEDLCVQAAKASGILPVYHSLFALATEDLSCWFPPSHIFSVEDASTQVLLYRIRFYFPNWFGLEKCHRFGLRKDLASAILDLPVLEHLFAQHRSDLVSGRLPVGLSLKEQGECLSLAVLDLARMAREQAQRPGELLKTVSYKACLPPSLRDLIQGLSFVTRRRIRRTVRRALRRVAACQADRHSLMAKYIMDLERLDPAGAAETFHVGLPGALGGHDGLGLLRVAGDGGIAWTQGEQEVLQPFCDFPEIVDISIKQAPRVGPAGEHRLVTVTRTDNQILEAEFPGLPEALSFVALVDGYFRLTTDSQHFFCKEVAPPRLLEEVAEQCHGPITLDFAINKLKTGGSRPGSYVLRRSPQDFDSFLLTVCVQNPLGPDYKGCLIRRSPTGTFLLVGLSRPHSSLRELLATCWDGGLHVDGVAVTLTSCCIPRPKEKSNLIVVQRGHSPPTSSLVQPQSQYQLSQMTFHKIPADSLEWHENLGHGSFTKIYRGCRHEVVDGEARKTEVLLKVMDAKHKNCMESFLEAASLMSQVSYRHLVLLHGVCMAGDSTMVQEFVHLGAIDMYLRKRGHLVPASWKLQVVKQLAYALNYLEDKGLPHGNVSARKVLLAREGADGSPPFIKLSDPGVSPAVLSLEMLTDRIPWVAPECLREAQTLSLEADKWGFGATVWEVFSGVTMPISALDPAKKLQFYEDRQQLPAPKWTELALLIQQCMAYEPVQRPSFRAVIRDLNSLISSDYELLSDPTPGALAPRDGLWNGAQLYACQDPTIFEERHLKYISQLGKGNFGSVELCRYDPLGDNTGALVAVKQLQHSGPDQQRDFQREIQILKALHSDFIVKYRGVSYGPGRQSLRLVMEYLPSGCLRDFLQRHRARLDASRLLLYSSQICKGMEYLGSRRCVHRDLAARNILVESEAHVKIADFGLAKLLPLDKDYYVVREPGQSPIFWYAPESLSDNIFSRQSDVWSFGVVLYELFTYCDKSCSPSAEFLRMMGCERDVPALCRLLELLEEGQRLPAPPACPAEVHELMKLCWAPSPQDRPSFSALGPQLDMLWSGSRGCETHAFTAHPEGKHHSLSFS
Experimental: (§1) The degree of inhibition of a panel of kinases is determined using assays similar to the kinase assay described in Example 53.

Btk [1] = biological target: T2, Btk (Homo sapiens, UniProt Q06187); assay: Inhibition of a panel of kinases: Btk; details: kinase panel, Table 2
Experimental: as §1

EGFR = EGFR (Homo sapiens, UniProt P00533); assay: Inhibition of a panel of kinases: EGFR; details: kinase panel, Table 2
Experimental: as §1

Btk [2] = biological target: T2, Btk; assay: Btk in vitro inhibitory activity (Method A, B or C); parameters: purified from insect cells as a full-length construct containing a N-terminal 6×-His tag; His6 (N); made in house; host or cells: insect cells (baculovirus, Sf21); details: one of the methods of Example 53a, 53b, 53c
Experimental: Btk kinase activity is determined using a time-resolved fluorescence resonance energy transfer (TR-FRET) methodology. Measurements are performed in a reaction volume of 50 μL using 96-well assay plates. Kinase enzyme, inhibitor, ATP (at the Km for the kinase), and 1 μM peptide substrate (Biotin-AVLESEEELYSSARQ-NH2 (SEQ ID NO: 1)) are incubated in a reaction buffer composed of 20 mM Tris, 50 mM NaCl, MgCl2 (5-25 mM depending on the kinase), MnCl2 (0-10 mM), 1 mM DTT, 0.1 mM EDTA, 0.01% bovine serum albumin, 0.005% Tween-20, and 10% DMSO at pH 7.4 for one hour. The reaction is quenched by the addition of 1.2 equivalents of EDTA (relative to divalent cation) in 25 μL of 1× Lance buffer (Perkin-Elmer). Streptavidin-APC (Perkin-Elmer) and Eu-labeled p-Tyr100 antibody (Perkin-Elmer) in 1× Lance buffer are added in a 25 μL volume to give final concentrations of 100 nM and 2.5 nM, respectively, and the mixture is allowed to incubate for one hour. The TR-FRET signal is measured on a multimode plate reader with an excitation wavelength (λEx) of 330 nm and detection wavelengths (λEm) of 615 and 665 nm. Activity is determined by the ratio of the fluorescence at 665 nm to that at 615 nm. For each compound, enzyme activity is measured at various concentrations of compound. Negative control reactions are performed in the absence of inhibitor in replicates of six, and two no-enzyme controls are used to determine baseline fluorescence levels. Inhibition constants, Ki(app), ware obtained using the program BatchKi (Kuzmic et al. (2000), Anal. Biochem. 286:45-50). IC50s are obtained according to the equation: IC50={Ki(app)/1+[ATP]/Km^ATP)}+[E]total/2;
For all kinases, [ATP]=Km^ATP, [Btk]total=0.5 nM and [Lck]total=6 nM.
Kinase activity is measured in vitro using electrophoretic mobility shift assay. The kinase reactions are assembled in a total volume of 25 μL in 384 well plates. The reactions comprise: BTK enzyme (1 nM, N-terminal His6-tagged, recombinant, full-length, human BTK purified from baculovirus Sf21 insect cell system), inhibitor, ATP (16 μM, the apparent Km for the kinase), fluorescently labeled peptide substrate (1 μM, FAM-GEEPLYWSFPAKKK-NH2 (SEQ ID NO: 2)) in a reaction buffer composed of 100 mM HEPES, pH7.5, 5 mM MgCl2 1 mM DTT, 0.1% bovine serum albumin, 0.01% Triton X-100, and 1% DMSO. The reaction is incubated for one hour and is quenched by the addition of 45 μL of termination buffer (100 mM HEPES, pH7.5, 0.01% Triton X-100, 30 mM EDTA). The terminated reactions are analyzed using 12 channel LabChip® 3000 microfluidic detection instrument (Caliper Life Sciences). The enzymatic phosphorylation of the peptide results in a change in net charge, enabling electrophoretic separation of product from substrate peptide. As substrate and product peptides are separated, two peaks of fluorescence are observed. Change in the relative fluorescence intensity of the substrate and product peaks is the parameter measured, reflecting enzyme activity. In the presence of an inhibitor, the ratio between product and substrate is altered: the signal of the product decreases, while the signal of the substrate increases.
Activity in each sample is determined as the product to sum ratio (PSR):P/(S+P), where P is the peak height of the product peptide and S is the peak height of the substrate peptide. For each compound, enzyme activity is measured at various concentrations (12 concentrations of compound spaced by 3× dilution intervals). Negative control samples (0%−inhibition in the absence of inhibitor) and positive control samples (100%−inhibition, in the presence of 20 mM EDTA) are assembled in replicates of four and are used to calculate %−inhibition values for each inhibitor at each concentration. Percent inhibition (Pinh) is determined using following equation: […]

LCK = LCK (Homo sapiens, UniProt P06239); assay: Inhibition of a panel of kinases: LCK; details: kinase panel, Table 2
Experimental: as §1

Chain of EGFR (P00533 25-1210, species assumed): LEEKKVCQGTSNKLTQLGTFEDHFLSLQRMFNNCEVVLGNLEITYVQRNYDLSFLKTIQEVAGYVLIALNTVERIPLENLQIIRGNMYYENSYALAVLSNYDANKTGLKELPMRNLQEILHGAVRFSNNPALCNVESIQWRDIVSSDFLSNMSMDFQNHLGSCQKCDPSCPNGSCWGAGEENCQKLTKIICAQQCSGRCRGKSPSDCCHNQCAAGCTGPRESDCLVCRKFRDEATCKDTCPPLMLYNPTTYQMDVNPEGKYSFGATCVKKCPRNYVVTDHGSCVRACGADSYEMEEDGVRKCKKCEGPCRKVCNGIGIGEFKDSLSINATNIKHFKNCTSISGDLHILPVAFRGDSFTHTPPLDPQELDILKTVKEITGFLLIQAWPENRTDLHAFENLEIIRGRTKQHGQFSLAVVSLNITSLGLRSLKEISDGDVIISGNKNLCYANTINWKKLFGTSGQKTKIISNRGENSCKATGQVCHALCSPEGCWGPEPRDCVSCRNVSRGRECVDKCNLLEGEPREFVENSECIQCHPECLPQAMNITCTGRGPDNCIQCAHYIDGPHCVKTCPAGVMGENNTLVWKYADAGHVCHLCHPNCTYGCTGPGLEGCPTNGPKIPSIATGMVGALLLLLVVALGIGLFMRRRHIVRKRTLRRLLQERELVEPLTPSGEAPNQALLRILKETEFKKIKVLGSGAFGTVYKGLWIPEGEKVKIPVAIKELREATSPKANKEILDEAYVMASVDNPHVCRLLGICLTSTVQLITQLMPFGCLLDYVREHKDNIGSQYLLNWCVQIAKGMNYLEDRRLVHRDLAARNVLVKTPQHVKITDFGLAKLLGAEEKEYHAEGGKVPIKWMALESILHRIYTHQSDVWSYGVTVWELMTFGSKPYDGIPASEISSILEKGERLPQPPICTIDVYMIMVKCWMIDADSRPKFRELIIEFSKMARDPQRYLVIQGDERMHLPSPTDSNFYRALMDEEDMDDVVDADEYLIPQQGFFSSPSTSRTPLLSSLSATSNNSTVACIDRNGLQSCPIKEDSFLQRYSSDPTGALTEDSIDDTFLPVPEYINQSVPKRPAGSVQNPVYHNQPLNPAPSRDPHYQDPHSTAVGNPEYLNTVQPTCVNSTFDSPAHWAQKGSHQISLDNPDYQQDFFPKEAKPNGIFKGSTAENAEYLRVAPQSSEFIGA
Chain of LCK (P06239 whole entry, species assumed): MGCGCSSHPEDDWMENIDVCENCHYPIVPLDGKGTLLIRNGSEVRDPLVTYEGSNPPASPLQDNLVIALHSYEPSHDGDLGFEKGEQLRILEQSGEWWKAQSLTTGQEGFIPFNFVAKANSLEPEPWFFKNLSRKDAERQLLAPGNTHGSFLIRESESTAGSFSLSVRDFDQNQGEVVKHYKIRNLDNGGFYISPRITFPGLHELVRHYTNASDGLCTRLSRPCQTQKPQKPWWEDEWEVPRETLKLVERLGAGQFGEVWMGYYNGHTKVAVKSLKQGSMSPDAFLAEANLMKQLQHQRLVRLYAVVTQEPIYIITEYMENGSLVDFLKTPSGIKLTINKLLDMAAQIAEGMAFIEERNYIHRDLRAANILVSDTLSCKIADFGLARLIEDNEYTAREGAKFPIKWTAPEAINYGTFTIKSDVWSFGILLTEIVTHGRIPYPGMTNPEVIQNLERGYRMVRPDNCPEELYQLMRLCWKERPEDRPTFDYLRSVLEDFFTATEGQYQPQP
T2 sequence (Q06187 whole entry): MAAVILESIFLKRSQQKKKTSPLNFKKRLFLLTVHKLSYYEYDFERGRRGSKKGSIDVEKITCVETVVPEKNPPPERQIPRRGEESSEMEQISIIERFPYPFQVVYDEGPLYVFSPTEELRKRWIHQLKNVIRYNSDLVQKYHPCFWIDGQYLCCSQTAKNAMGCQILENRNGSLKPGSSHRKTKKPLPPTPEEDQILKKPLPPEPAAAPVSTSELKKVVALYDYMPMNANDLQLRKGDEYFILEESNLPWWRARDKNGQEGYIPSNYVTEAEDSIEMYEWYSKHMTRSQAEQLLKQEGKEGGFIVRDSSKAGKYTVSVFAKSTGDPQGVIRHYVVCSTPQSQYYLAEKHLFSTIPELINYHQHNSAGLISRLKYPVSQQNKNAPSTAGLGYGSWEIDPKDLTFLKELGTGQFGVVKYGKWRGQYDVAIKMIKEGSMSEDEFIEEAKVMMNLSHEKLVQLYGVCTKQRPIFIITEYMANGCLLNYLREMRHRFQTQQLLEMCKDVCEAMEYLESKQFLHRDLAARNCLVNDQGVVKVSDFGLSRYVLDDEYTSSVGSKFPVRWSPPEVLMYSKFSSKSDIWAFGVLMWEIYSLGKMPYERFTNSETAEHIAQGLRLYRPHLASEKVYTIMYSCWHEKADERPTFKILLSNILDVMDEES

SMILES | IC50 (JAK3) | IC50 (Btk [1]) | IC50 (EGFR) | IC50 (Btk [2]) | IC50 (LCK)
CC#CC(=O)N1CC[C@@H](n2nc(-c3ccc(C(=O)Nc4cc(C(F)(F)F)ccn4)cc3)c3c(N)ncnc32)C1 [Compound ID 1, (R)-4-(4-amino-1-(1-but-2-ynoylpyrrolidin-3-yl)-1H-pyrazolo[3,4-d]pyrimidin-3-yl)-N-(4-(trifluoromethyl)pyridin-2-yl)benzamide] | > 1 µM | ≤ 0.01 µM | 0.1 to 1 µM | ≤ 0.01 µM | 0.1 to 1 µM
CC#CC(=O)N1CC[C@@H](n2nc(-c3ccc(C(=O)Nc4cc(C)ccn4)cc3)c3c(N)ncnc32)C1 [Compound ID 2, (R)-4-(4-amino-1-(1-but-2-ynoylpyrrolidin-3-yl)-1H-pyrazolo[3,4-d]pyrimidin-3-yl)-N-(4-methylpyridin-2-yl)benzamide] | > 1 µM | ≤ 0.01 µM | > 1 µM | ≤ 0.01 µM | 0.1 to 1 µM
CC#CC(=O)N1CC[C@@H](n2nc(-c3ccc(C(=O)Nc4ccccn4)cc3)c3c(N)ncnc32)C1 [Compound ID 3, (R)-4-(4-amino-1-(1-but-2-ynoylpyrrolidin-3-yl)-1H-pyrazolo[3,4-d]pyrimidin-3-yl)-N-(pyridin-2-yl)benzamide] | > 1 µM | ≤ 0.01 µM | 0.1 to 1 µM | ≤ 0.01 µM | 0.01 to 0.1 µM
CC#CC(=O)N1CC[C@@H](n2nc(-c3ccc(C(=O)Nc4cc(C(C)C)ccn4)cc3)c3c(N)ncnc32)C1 [Compound ID 4, (R)-4-(4-amino-1-(1-but-2-ynoylpyrrolidin-3-yl)-1H-pyrazolo[3,4-d]pyrimidin-3-yl)-N-(4-isopropylpyridin-2-yl)benzamide] | > 1 µM | ≤ 0.01 µM | > 1 µM | ≤ 0.01 µM | 0.1 to 1 µM
CC#CC(=O)N1CC[C@@H](n2nc(-c3ccc(C(=O)Nc4cc(C#N)ccn4)cc3)c3c(N)ncnc32)C1 [Compound ID 5, (R)-4-(4-amino-1-(1-but-2-ynoylpyrrolidin-3-yl)-1H-pyrazolo[3,4-d]pyrimidin-3-yl)-N-(4-cyanopyridin-2-yl)benzamide] | > 1 µM | ≤ 0.01 µM | > 1 µM | ≤ 0.01 µM | 0.1 to 1 µM
CC#CC(=O)N1CCC[C@@H](n2nc(-c3ccc(C(=O)Nc4cc(C(C)C)ccn4)cc3)c3c(N)ncnc32)C1 [Compound ID 6, (R)-4-(4-amino-1-(1-but-2-ynoylpiperidin-3-yl)-1H-pyrazolo[3,4-d]pyrimidin-3-yl)-N-(4-isopropylpyridin-2-yl)benzamide] | > 1 µM | ≤ 0.01 µM | > 1 µM | ≤ 0.01 µM | 0.1 to 1 µM

Next, values leading:

IC50 (JAK3) | IC50 (Btk [1]) | IC50 (EGFR) | IC50 (Btk [2]) | IC50 (LCK) | SMILES
> 1 µM | ≤ 0.01 µM | > 1 µM | ≤ 0.01 µM | > 1 µM | CCC#CC(=O)N1CC[C@@H](n2nc(-c3ccc(C(=O)Nc4cc(C)ccn4)cc3)c3c(N)ncnc32)C1 [Compound ID 7, (R)-4-(4-amino-1-(1-pent-2-ynoylpyrrolidin-3-yl)-1H-pyrazolo[3,4-d]pyrimidin-3-yl)-N-(4-methylpyridin-2-yl)benzamide]
> 1 µM | ≤ 0.01 µM | 0.1 to 1 µM | ≤ 0.01 µM | > 1 µM | Cc1ccnc(NC(=O)c2ccc(-c3nn([C@@H]4CCN(C(=O)C#CC5CC5)C4)c4ncnc(N)c34)cc2)c1 [Compound ID 8, (R)-4-(4-amino-1-(1-(3-cyclopropylpropioloyl)pyrrolidin-3-yl)-1H-pyrazolo[3,4-d]pyrimidin-3-yl)-N-(4-methylpyridin-2-yl)benzamide]
– | ≤ 0.01 µM | 0.01 to 0.1 µM | ≤ 0.01 µM | 0.01 to 0.1 µM | CC#CC(=O)N1CCC[C@@H](n2nc(-c3ccc(C(=O)Nc4nccs4)cc3)c3c(N)ncnc32)C1 [Compound ID 16, (R)-4-(4-amino-1-(1-but-2-ynoylpiperidin-3-yl)-1H-pyrazolo[3,4-d]pyrimidin-3-yl)-N-(thiazol-2-yl)benzamide]
– | ≤ 0.01 µM | ≤ 0.01 µM | ≤ 0.01 µM | 0.1 to 1 µM | CC#CC(=O)N1CCC[C@@H](n2nc(-c3ccc(C(=O)Nc4ncc(C)s4)cc3)c3c(N)ncnc32)C1 [Compound ID 17, (R)-4-(4-amino-1-(1-but-2-ynoylpiperidin-3-yl)-1H-pyrazolo[3,4-d]pyrimidin-3-yl)-N-(5-methylthiazol-2-yl)benzamide]
– | ≤ 0.01 µM | ≤ 0.01 µM | ≤ 0.01 µM | 0.1 to 1 µM | C=CC(=O)N1CC[C@@H](n2nc(-c3ccc(C(=O)Nc4ccccn4)cc3)c3c(N)ncnc32)C1 [Compound ID 22, (R)-4-(1-(1-acryloylpyrrolidin-3-yl)-4-amino-1H-pyrazolo[3,4-d]pyrimidin-3-yl)-N-(pyridin-2-yl)benzamide]
